Results on one compound are retold here after patent US20110135671A1, “PURINE DERIVATIVES FOR USE IN THE TREATMENT OF ALLERGIC, INFLAMMATORY AND INFECTIOUS DISEASES” (GLAXOSMITHKLINE LLC, priority 2008, published 2011).

Assay [1] deals with Interferon-α. The experiment in a line: Induction of Interferon-α using cryopreserved human PBMCs. Type of assay: cell-based. As to conditions: PBMC, 24 h, normalised to 1 uM resiquimod, read-out: mean pEC50 for induction of Interferon-α (converted). In a few lines: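 Thawed cryopreserved human PBMCs at 1×10^6 cells/ml in RPMI/10% FCS with 1000 units/ml IFN-gamma were exposed to 11-point, 2-fold compound dilutions for 24 h at 37° C. Supernatant IFN-α was quantified by MSD sandwich immunoassay. pEC50 came from 4-parameter fit, normalised to 1 uM resiquimod and DMSO controls.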

In assay [2] the test system is Interferon-α. Put plainly: Induction of Interferon-α using fresh human PBMCs. It is filed as cell-based. The settings on record: PBMC, 24 hr, relative to 2 μM resiquimod control, read-out: mean pEC50 for induction of IFN-α (converted). Here is the method:
(§1) Assay for the Induction of Interferon-α and TNF-α Using Fresh Human Peripheral Blood Mononuclear Cells (PBMCs)
(§2) Compounds were dissolved and serially diluted in DMSO to give 100× the required concentration range using a Biomek 2000. 1 ul of test compound was transferred into 96-well tissue culture plates using a Biomek FX. Each compound was assayed in duplicate for each donor. Each plate contained a dilution series of the TLR7/8 agonist resiquimod as standard and Column 11 contained 1 μl of 200 μM resiquimod (giving a 2 μM final concentration, used to define the approximate maximal response to resiquimod).
(§3) Blood samples from two human donors were collected into sodium heparin (10 U/ml). 25 ml volumes of whole blood were overlaid onto 15 mls Histopaque in Leucosep tubes which were centrifuged at 800 g for 20 min and the band at the plasma/histopaque interface carefully removed. The collected cells were centrifuged at 2500 rpm for 10 min and the pellet resuspended in 10 ml of media (RPMI 1640 (Low endotoxin) supplemented with 10% v/v foetal calf serum (FCS, low endotoxin) 100 U/ml penicillin G, 100 μg/ml streptomycin, 10 mM L-glutamine and 1× non-essential amino acids). A 1:20 dilution of the cells was prepared using trypan blue & the cells counted using a haemocytometer. The PBMCs were diluted to give a final concentration of 2×10^6/ml and 100 ul of this cells suspension was added to wells containing 1 μl of diluted test compound.
(§4) The cell preparations were incubated for 24 hr (37° C., 95% air, 5% CO2) after which a sample of the supernatant was removed using the Biomek FX and assayed for both IFN-α and TNF-α using the MSD (Mesoscale Discovery) electrochemiluminescence assay platform. The IFN-α assay was carried out similarly to that described above. The TNF-α assay was carried out as per kit instructions (Cat No K111 BHB).
(§5) Cytokine released was expressed as a percentage of the 2 μM resiquimod control (column 11). This percentage was plotted against compound concentration and the pEC50 for the response determined by non-linear least squares curve fitting. For the IFN-α responses generally a 4 parameter logistic model was selected. For the TNF responses where a clear maximum response was obtained (i.e. a well defined plateau in the response was observed) then a 4 parameter model was generally used. If the upper asymptote of the curve wasn't well defined then the curve fitting was generally constrained to a maximal response of 100% (i.e., to the response to 2 μM resiquimod) or to the response of the highest concentration tested if this was greater than the resiquimod response. Some curves were bell shaped for one or both cytokines and the cytokine data on the down slope of the bell shaped response (i.e. concentrations above those giving the maximal response) were generally excluded from the fit, usually with the exception of the concentration immediately above the peak response. Curve fitting thus concentrated on the up slope of the dose response curve.

Another assay deals with TNF-α. Put plainly: Induction of TNF-α using fresh human PBMCs. It is filed as cell-based. As to conditions: PBMC, 24 hr, relative to 2 μM resiquimod control, read-out: mean pEC50 for induction of TNF-α (converted). Here is the method:
as §1, §2, §3, §4, §5

Assay [3] relates to Interferon-α. The experiment in a line: Induction of Interferon-α following intranasal dosing in the mouse. It is filed as in vivo. The settings on record: female BALB/c mice, 2 hours after dosing, ELISA. The protocol:
Assay for the Induction of Interferon-α Following Intranasal Dosing in the Mouse.
Example 46 was dissolved in 0.2% Tween 80 in saline and administered intranasally (5 μl in total between the nostrils) to female BALB/c mice (n=6) under general anaesthesia. Animals were euthanased 2 hours after dosing and a terminal blood sample was taken and serum levels of Interferon-α was measured using an ELISA assay. Mean serum levels of Interferon-α of 1253 pg/ml were measured. No Interferon-α was detected in vehicle treated controls.

Turning to `CCCCOc1nc(N)c2[nH]c(=O)n(CCCCCN3CCN(C)CC3)c2n1` [Example 46, 6-Amino-2-(butyloxy)-9-[5-(4-methyl-1-piperazinyl)pentyl]-7,9-dihydro-8H-purin-8-one], the EC50 in the assay with Interferon-α [1] is under 3.16 µM; in the assay on Interferon-α [2], under 0.001 µM; with TNF-α it was over 1 µM. In addition, in the assay on Interferon-α [3], the “mean serum levels of Interferon-α” value was 1253 pg/mL.
